For series [1], the system named is MDA-MB-231 human triple negative breast or HeLa human cervical tumors. The series can be described thus: Tumor weight after IP or IT treatment with pHLIP-S-S-mertansine. In kind it is in vivo, female athymic nude mice. To be noted: for tumor weight reduction: vs non-treated control. The protocol: FIG. 19C depicts a box plot presenting mean (filled square), median, 25 and 75 percentiles (box itself) and standard deviation values of the tumor weights collected after IP and IT treatment with pHLIP-S-S-mertansine compared to the control (non-treated) group. P-level was calculated using two-tailed test.
pHLIP-S-S-mertansine dissolved in PBS and was given as multiple intraperitoneal (IP) or intratumoral (IT) injections (once in 3-4 days) into mice bearing MDA-MB-231 human triple negative breast or HeLa human cervical tumors in flanks of female athymic nude mice. The total combined dose of the multiple IP injections of pHLIP-S-S-mertansine was […], and the total combined dose of the multiple IT injections of pHLIP-S-S-mertansine was ˜2.5 mg/kg. When the tumor reached a size of about 1 cm^3 (about 1 g) in the control (non-treated) group, the animals were sacrificed; tumors were collected (FIG. 19B) and weighted (FIG. 19C).
In a separate experiment, IT injections were performed, tumors disappeared and mice were left for several weeks.

Series [2] concerns HeLa human cervical tumors. The series can be described thus: Tumor weight after treatment with pHLIP-S-S-exatecan. The format is in vivo, female athymic nude mice.
The subject of series [3] is panel of urinary bladder cancer cell lines. The series can be described thus: Cell viability on panel of urinary bladder cancer cell lines (summary statements). The conditions noted are these: amanitin alone, two hours, concentrations up to 2 μM. The format is cell-based. How it is done: The cytotoxic and highly polar agents, like amanitin, may be especially effective in topical applications.
Cancer cells were loaded in the wells of 96-well plates (5,000 cells/well) and incubated overnight. The standard growth medium was replaced with medium without FBS, at pH 6.0 or 7.4, containing increasing amounts of pHLIP-S-S-amanitin (from 0 to 2.0 μM). The pH 6.0 medium was prepared by mixing 13.3 g of dry DMEM in 1 L of deionized water. After two-hour incubation with the pHLIP-S-S-amanitin, the construct was removed and replaced with standard growth medium. […] Cell viability was assessed after 48 hours using the colorimetric CellTiter 96 AQueous One Solution Cell Proliferation Assay by absorption measurement at 490 nm (FIG. 20B presents an example of the data obtained on SCaBER squamous cell carcinoma).
There was no difference in the viability of cells incubated with media, without construct, at pH 7.4 and pH 6.0; therefore, the role of pH was excluded from the consideration. Therapeutic index (TI) was calculated according to the equation: […]
Table 8 below contains EC50 values obtained for the treatment at pH 7.4 and pH 6.0 and calculated therapeutic index, which clearly indicated a pH-dependent cell action of pHLIP-S-S-amanitin. […]

Series [4] deals with HeLa human cervical tumors. The experiment in a line: Tumor weight after IP treatment with pHLIP-S-S-calicheamicin. The conditions noted are these: multiple IP injections once in 3-4 days, total ~1.5 mg/kg, vs non-treated control. In kind it is in vivo, female athymic nude mice. The protocol: FIG. 21C depicts box plot presenting mean (filled squares), median, 25 and 75 percentiles (box) and standard deviation values of tumor weights after IP and IT treatment with pHLIP-S-S-calicheamicin compared to the control (non-treated) group. P-level was calculated using two-tailed test.
Calicheamicin modified with SPDP was synthesized and purified by Cfm, GmbH (FIG. 21A). Calicheamicin-SPDP was used to conjugate with Cys residue of pHLIP® peptide's membrane-inserting end to obtain pHLIP-S-S-calicheamicin. The pHLIP® peptide used in the study: […] (SEQ ID NO: 3) was prepared by solid-phase synthesis. Purification of the pHLIP-S-S-calicheamicin was conducted using RP-HPLC (the gradient: 10 mM TEAA buffer and acetonitrile), followed by lyophilization. The construct purity and identity was established by analytical RP-HPLC and surface-enhanced laser desorption/ionization time of flight (SELDI-TOF) mass spectroscopy, respectively. Construct concentration was calculated by absorbance at 280 nm for pHLIP® peptide with correction on absorbance of calicheamicin. pHLIP-S-S-calicheamicin dissolved in PBS was given as multiple intraperitoneal (IP) or intratumoral (IT) injections (once in 3-4 days) into mice bearing HeLa human cervical tumors in flank of female athymic nude mice.
The total combined dose of the multiple IP injections of pHLIP-S-S-calicheamicin was ˜1.5 mg/kg. […]

Side chains are listed from the residue outwards. Ends that are not written are not given here. * marks the point of attachment. mertansine = COc1cc2cc(c1Cl)N(C)C(=O)C[C@H](OC(=O)[C@H](C)N(C)C(=O)CCS*)[C@]1(C)O[C@H]1[C@H](C)[C@@H]1C[C@@](O)(NC(=O)O1)[C@H](OC)/C=C/C=C(\C)C2; SPDP = linker on the drug for disulfide conjugation to Cys

Regarding “pHLIP-S-S-mertansine: Mertansine (DM1) conjugated to membrane-inserting end of pHLIP peptide ADDQNPWRAYLDLLFPTDTLLLDLLWCA (SEQ ID NO: 3) via cleavable S-S link (ADDQNPWRAYLDLLFPTDTLLLDLLWC(mertansine)A)”, the tumor disappearance entry in series [1] (after IT administration, in some cases) is recorded as “tumor disappeared”. In series [1] (in the course of IP or IT treatment), the signs of toxicity entry is “no signs of toxicity”. Further, the tumor weight reduction result is recorded as “About 60%” in series [1] (multiple IP injections once in 3-4 days, total combined dose −10 mg/kg) and “more than 90%” in series [1] (multiple IT injections once in 3-4 days, total combined dose ~2.5 mg/kg). The “cases with no tumor re-growth” value in series [1] (separate experiment, IT injections, tumors disappeared, mice left for several weeks) was 60%.

With “pHLIP-S-S-exatecan: Exatecan-SPDP conjugated with single Cys residue of membrane-inserting end of pHLIP peptide ADDQNPWRAYLDLLFPTDTLLLDLLWCA (SEQ ID NO: 3) (ADDQNPWRAYLDLLFPTDTLLLDLLWC([SPDP-exatecan])A)”, the tumor weight reduction is 50-60% in series [2] (IP administration, multiple injections once in 3-4 days, vs non-treated control) and “more than 70%” in series [2] (IT administration).

Turning to `CC[C@H](C)[C@@H]1NC(=O)CNC(=O)[C@@H]2Cc3c([nH]c4cc(O)ccc34)[S@+]([O-])C[C@H](NC(=O)CNC1=O)C(=O)N[C@@H](CC(N)=O)C(=O)N1C[C@H](O)C[C@H]1C(=O)N[C@@H]([C@@H](C)[C@@H](O)CO)C(=O)N2` [amanitin, alpha-amanitin], the “induction of cell death” value in series [3] is given as “did not induce cell death”.

Turning to “pHLIP-S-S-calicheamicin: Calicheamicin-SPDP conjugated with Cys residue of membrane-inserting end of pHLIP peptide ADDQNPWRAYLDLLFPTDTLLLDLLWCA (SEQ ID NO: 3) (ADDQNPWRAYLDLLFPTDTLLLDLLWC([SPDP-calicheamicin])A)”, the tumor weight reduction entry in series [4] is reported as “About 88%”.
